Series [1] concerns the target CDK4-CYCLIN D1 (Homo sapiens (Human), UniProt P11802). Description: CDK protein kinase inhibition by the ADP-Glo Assay, CDK4-CYCLIN D1. The format is biochemical. As to conditions: for IC50: ADP-Glo, 1000 μM ATP; for Selectivity CDK4 vs CDK1 / Selectivity CDK4 vs CDK2 / Selectivity CDK4 vs CDK6 / Selectivity CDK4 vs CDK9: ratio of recombinant kinase IC50s; for Selectivity CDK4 vs CDK1: CDK1 over CDK4; for Selectivity CDK4 vs CDK2: CDK2 over CDK4; for Selectivity CDK4 vs CDK6: CDK6 over CDK4; for Selectivity CDK4 vs CDK9: CDK9 over CDK4. As to the method:
(§1) This ADP-Glo assay measures ADP formed from a kinase reaction and indirectly quantifies the phosphorylation of peptide substrates by the CDK/cyclin protein complexes. The typical assays were carried out in Nanosyn by combining kinase/cyclin complexes, substrates, compounds, and cofactors (ATP and Mg2+) in a well of a 384-well microtiter plate (Coming 3824) and incubating at 22° C. (Table 4). At the end of the incubation, the reaction is quenched, and conversion is detected by luminescence using the Promega ADP-Glo™ Kinase Assay kit (catalog #V9102). Briefly, 5 μL of 1× enzyme and substrate buffer (or control), 50 nL of 100× compound, and 0.5 μL of 10 mM ATP were sequentially added to a well of a 384-well plate.
(§2) The Final assay buffer mixture contains: 100 mM HEPES, pH 7.5, 0.1% BSA, 0.01% Triton X-100, 1 mM DTT, 5 mM MgCl2, 10 μM Sodium Orthovanadate, 10 μM Beta-Glycerophosphate, 1000 μM Ultra Pure ATP (provided in the Promega ADP-Glo™ Kinase Assay kit), and 1% DMSO (from compound).
(§3) Upon completion, 5 μL of the ADP Glo reagent was added to each well and the plate was further incubated at room temperature for 45 min. 10 μL of the Kinase Detection Reagent was subsequently added to each well. After 10 min of incubation, the plate was read and analyzed on the BioTek Synergy microplate reader using BioTek Gen5 software.

Series [2] relates to Phospho-Rb (Ser807/811) in MCF7 cells. Description: Phospho-Rb expression inhibition in MCF7 cells quantified by in cell Western. Format: cell-based, human. As to conditions: for IC50: in cell Western. In a few lines: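 MCF7 cells were seeded at 20,000/well, grown overnight, then treated 24 h at 37 °C with compound dilutions (0.1% DMSO from 1000× stocks). Fixed cells were co-stained for phospho-Rb Ser807/811 and total Rb. Near-infrared dual-channel in-cell Western imaging was the read-out.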

For series [3], the target named is CDK2-CYCLIN E1 (Homo sapiens (Human), UniProt P24941). Description: CDK protein kinase inhibition by the ADP-Glo Assay, CDK2-CYCLIN E1. The format is biochemical. To be noted: 1000 μM ATP, read-out: CDK2-CYCLIN E, IC50. As for the experimental part:
as §1, §2, §3

The target of series [4] is CDK1-CYCLIN B (Homo sapiens (Human), UniProt P06493). Description: CDK protein kinase inhibition by the ADP-Glo Assay, CDK1-CYCLIN B. Format: biochemical. As to conditions: 1000 μM ATP. As to the method:
as §1, §2, §3

Series [5] deals with CDK6-CYCLIN D3 (Homo sapiens (Human), UniProt Q00534). Description: CDK protein kinase inhibition by the ADP-Glo Assay, CDK6-CYCLIN D3. The format is biochemical. To be noted: 1000 μM ATP. As to the method:
as §1, §2, §3

Setting [6] is: Homo sapiens, MCF7, 24 h, 24 hours, read-out: MCF7 pRb IC50.

Data on 9 compounds can be found in patent publication US20250084095A1, “Aminopyrimidine Derivatives as Cyclin-Dependent Kinase Inhibitors” (Accutar Biotechnology Inc., priority 2023, published 2025).

Read-outs that look alike come from different tables or passages of the source. A value given as a limit tells only on which side of the number the result lay.

Chain of CDK4-CYCLIN D1 (P11802 whole entry): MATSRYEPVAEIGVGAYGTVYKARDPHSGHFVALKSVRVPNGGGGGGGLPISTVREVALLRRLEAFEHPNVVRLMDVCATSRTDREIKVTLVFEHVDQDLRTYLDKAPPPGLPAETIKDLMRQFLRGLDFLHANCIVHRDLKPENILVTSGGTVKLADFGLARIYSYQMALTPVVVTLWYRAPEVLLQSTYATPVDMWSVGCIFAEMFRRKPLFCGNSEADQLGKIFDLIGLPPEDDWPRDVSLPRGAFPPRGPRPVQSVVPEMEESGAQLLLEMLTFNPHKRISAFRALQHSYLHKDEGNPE
Chain of CDK4-CYCLIN D1 (P24385 whole entry partner): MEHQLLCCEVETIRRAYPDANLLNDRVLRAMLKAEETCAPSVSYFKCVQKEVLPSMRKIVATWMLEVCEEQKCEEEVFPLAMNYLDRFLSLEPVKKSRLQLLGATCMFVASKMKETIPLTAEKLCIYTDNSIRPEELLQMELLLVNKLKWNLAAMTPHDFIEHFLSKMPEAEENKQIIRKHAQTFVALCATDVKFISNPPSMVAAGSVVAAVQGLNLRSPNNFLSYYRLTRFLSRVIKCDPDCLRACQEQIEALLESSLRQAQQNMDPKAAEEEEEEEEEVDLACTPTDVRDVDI
Chain of CDK6-CYCLIN D3 (Q00534 whole entry): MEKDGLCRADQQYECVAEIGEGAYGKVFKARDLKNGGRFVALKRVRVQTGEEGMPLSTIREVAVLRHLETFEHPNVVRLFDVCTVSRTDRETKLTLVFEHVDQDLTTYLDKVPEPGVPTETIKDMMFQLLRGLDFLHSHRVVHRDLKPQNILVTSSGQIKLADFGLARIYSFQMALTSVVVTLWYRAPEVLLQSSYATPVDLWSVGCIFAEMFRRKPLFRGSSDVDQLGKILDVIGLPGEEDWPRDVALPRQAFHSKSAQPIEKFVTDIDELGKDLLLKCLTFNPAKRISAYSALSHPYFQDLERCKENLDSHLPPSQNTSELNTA
Chain of CDK6-CYCLIN D3 (P30281 whole entry partner): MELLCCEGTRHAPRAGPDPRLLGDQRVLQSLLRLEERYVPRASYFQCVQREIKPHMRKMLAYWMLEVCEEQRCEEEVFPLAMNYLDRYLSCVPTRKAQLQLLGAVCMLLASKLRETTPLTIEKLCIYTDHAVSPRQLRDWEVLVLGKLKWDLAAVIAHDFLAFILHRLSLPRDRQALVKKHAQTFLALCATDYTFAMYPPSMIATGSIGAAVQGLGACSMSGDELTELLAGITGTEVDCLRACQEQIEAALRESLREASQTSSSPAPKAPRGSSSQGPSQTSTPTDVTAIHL
Chain of CDK1-CYCLIN B (P06493 whole entry): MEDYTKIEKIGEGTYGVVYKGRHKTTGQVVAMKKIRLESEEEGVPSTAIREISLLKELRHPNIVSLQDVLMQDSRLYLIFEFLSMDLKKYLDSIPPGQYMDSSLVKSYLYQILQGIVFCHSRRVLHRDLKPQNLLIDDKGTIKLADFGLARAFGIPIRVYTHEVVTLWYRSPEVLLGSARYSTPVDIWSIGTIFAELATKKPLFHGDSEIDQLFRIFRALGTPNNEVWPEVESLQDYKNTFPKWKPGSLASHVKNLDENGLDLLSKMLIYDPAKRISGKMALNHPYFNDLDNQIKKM
Chain of CDK1-CYCLIN B (P14635 whole entry partner): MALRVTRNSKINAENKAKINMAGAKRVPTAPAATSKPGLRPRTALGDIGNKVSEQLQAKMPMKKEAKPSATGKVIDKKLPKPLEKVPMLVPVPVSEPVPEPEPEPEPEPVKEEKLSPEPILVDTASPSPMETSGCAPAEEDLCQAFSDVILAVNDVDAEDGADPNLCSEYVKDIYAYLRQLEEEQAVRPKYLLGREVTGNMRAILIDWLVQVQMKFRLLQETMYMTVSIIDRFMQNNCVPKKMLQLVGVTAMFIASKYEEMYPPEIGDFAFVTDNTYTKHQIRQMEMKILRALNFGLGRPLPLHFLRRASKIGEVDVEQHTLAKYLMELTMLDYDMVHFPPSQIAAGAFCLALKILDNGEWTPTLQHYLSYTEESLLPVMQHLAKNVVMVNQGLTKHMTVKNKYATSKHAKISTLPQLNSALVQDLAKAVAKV

As for `CC(C)n1c(C(C)(C)O)nc2c(F)cc(-c3nc(N[C@@H]4C[C@H]5CO[C@H](O5)[C@H]4O)ncc3Cl)cc21` [Compound 1, (1S,3R,4S,5R)-3-((5-chloro-4-(4-fluoro-2-(2-hydroxypropan-2-yl)-1-isopropyl-1H-benzo[d]imidazol-6-yl)pyrimidin-2-yl)amino)-6,8-dioxabicyclo[3.2.1]octan-4-ol], under “both, human, 1 μM”, the “Hepatic Extraction Ratio (ER)” value amounted to 0.23. Moreover, the “Predicted Hepatic CLH” value (both, human, 1 μM) is 4.9 mL/min/kg. Besides, the “In vitro CLint (μL/min/10^6 cell)” value (human, hepatocytes) is 2.5 μL/min/10^6 cell. Moreover, the IC50 in series [1] was 3.15 nM; in series [2] (Homo sapiens, MCF7, 24 h, 24 h incubation, read-out: MCF7, pRb (Ser807/811), IC50) it was 40.4 nM; in series [2] (setting [6]), 40 to 150 nM; in series [3], more than 30000 nM; in series [4], 26200 nM; in series [5] it was 63.8 nM. The “Selectivity CDK4 vs CDK1” value in series [1] is 8,317. Besides, the “Selectivity CDK4 vs CDK2” value in series [1] is recorded as >9,524. Also, the “Selectivity CDK4 vs CDK6” value in series [1] was 20. In series [1], the “Selectivity CDK4 vs CDK9” value was 1,549. Moreover, the “Selectivity for CDK4 over CDK1, CDK2, CDK6 and CDK9 compared with the reference compound” value in series [1] (versus PF-07220060) is given as “much better selectivity”. For the same compound, the “Potency in p-Rb inhibition compared with the reference compound” value in series [2] (versus PF-07220060) is given as “higher potency”.
Regarding `CC(C)n1c([C@H]2CCOC2)nc2c(F)cc(-c3nc(N[C@@H]4C[C@H]5CO[C@H](O5)[C@H]4O)ncc3F)cc21` [Compound 269, (1S,3R,4S,5R)-3-((5-fluoro-4-(4-fluoro-1-isopropyl-2-((R)-tetrahydrofuran-3-yl)-1H-benzo[d]imidazol-6-yl)pyrimidin-2-yl)amino)-6,8-dioxabicyclo[3.2.1]octan-4-ol], the IC50 in series [2] (setting [6]) was 40 to 150 nM.
On to `CC(C)n1c([C@@H]2CCOC2)nc2c(F)cc(-c3nc(N[C@@H]4C[C@H]5CO[C@H](O5)[C@H]4O)ncc3F)cc21` [Compound 270, (1S,3R,4S,5R)-3-((5-fluoro-4-(4-fluoro-1-isopropyl-2-((S)-tetrahydrofuran-3-yl)-1H-benzo[d]imidazol-6-yl)pyrimidin-2-yl)amino)-6,8-dioxabicyclo[3.2.1]octan-4-ol], for which, in series [2] (setting [6]), the IC50 is 40 to 150 nM.
Still for that read-out and setting: next, `Cc1c(-c2nc(N[C@@H]3C[C@H]4CO[C@H](O4)[C@H]3O)ncc2Cl)sc2c(Cl)c(C(C)(C)O)cnc12` [Compound 275, (1S,3R,4S,5R)-3-((5-chloro-4-(7-chloro-6-(2-hydroxypropan-2-yl)-3-methylthieno[3,2-b]pyridin-2-yl)pyrimidin-2-yl)amino)-6,8-dioxabicyclo[3.2.1]octan-4-ol]: 40 to 150 nM; `Cc1c(-c2nc(N[C@@H]3C[C@H]4CO[C@H](O4)[C@H]3O)ncc2F)sc2c(Cl)c(C(C)(C)O)cnc12` [Compound 276, (1S,3R,4S,5R)-3-((4-(7-chloro-6-(2-hydroxypropan-2-yl)-3-methylthieno[3,2-b]pyridin-2-yl)-5-fluoropyrimidin-2-yl)amino)-6,8-dioxabicyclo[3.2.1]octan-4-ol]: not above 40 nM; `Cc1c(-c2nc(N[C@@H]3C[C@H]4CO[C@H](O4)[C@H]3O)ncc2Cl)sc2c(C)c(C(C)(C)O)cnc12` [Compound 277, (1S,3R,4S,5R)-3-((5-chloro-4-(6-(2-hydroxypropan-2-yl)-3,7-dimethylthieno[3,2-b]pyridin-2-yl)pyrimidin-2-yl)amino)-6,8-dioxabicyclo[3.2.1]octan-4-ol]: not above 40 nM.
On to `Cc1c(CN2CC[C@H](F)C2)n(C(C)C)c2cc(-c3nc(N[C@@H]4C[C@H]5CO[C@H](O5)[C@H]4O)ncc3F)ccc2c1=O` [Compound 293, 7-(5-fluoro-2-(((1S,3R,4S,5R)-4-hydroxy-6,8-dioxabicyclo[3.2.1]octan-3-yl)amino)pyrimidin-4-yl)-2-(((S)-3-fluoropyrrolidin-1-yl)methyl)-1-isopropyl-3-methylquinolin-4(1H)-one], for which, in series [2] (setting [6]), the IC50 is not above 40 nM.
The same measure, in the same setting: next, `CC(C)n1c(N2C(=O)OC[C@@H]2C)nc2c(F)cc(-c3nc(N[C@@H]4C[C@H]5CO[C@H](O5)[C@H]4O)ncc3Cl)cc21` [Compound 298, (S)-3-(6-(5-chloro-2-(((1S,3R,4S,5R)-4-hydroxy-6,8-dioxabicyclo[3.2.1]octan-3-yl)amino)pyrimidin-4-yl)-4-fluoro-1-isopropyl-1H-benzo[d]imidazol-2-yl)-4-methyloxazolidin-2-one]: 150 to 1000 nM.
With `CC(C)n1c(C(C)(C)O)nc2c(F)cc(-c3nc(N[C@@H]4CCOC[C@H]4O)ncc3Cl)cc21` [Reference Compound, PF-07220060, reference compound], the “Scaled-up CLint” value (hepatocytes) amounted to 28.6 mL/min/kg. For the same compound, where the note is “human, hepatocytes”, the “In vitro CLint (μL/min/10^6 cell)” value turned out to be 11.3 μL/min/10^6 cell. Also, in series [1], the IC50 worked out at 4.37 nM, the “Selectivity CDK4 vs CDK1” value is listed as 1,966, the “Selectivity CDK4 vs CDK2” value is >6,865 and the “Selectivity CDK4 vs CDK6” value is 18. Further, the “Selectivity CDK4 vs CDK9” value in series [1] came to 430. In series [2] (24 h incubation, read-out: MCF7, pRb (Ser807/811), IC50), the IC50 is 65.2 nM. Further, in series [3], the IC50 was more than 30000 nM. The IC50 in series [4] was 8590 nM. Also, the IC50 in series [5] worked out at 76.5 nM.
